For this test, the system named is proton-gated cation channels in cultured mouse cortical neurons. Briefly: Whole cell patch clamp of proton-gated currents in cultured mouse cortical neurons. The class given is cell-based. The method, then:
The following experiments were performed in voltage-or current clamp using conventional whole cell patch clamp methods [Hamill O P, Marty A, Neher E, Sakmann B and Sigworth F J: Improved patch-clamp techniques for high-resolution current recording from cells and cell-free membrane patches; Pflügers Arch. 1981 39 85-100]. The following salt solutions were used (where nothing else stated, the chemicals are available from Sigma): NaCl (140 mM), KCl (4 mM), CaCl2 (2 mM), MgCl2 (1 mM), Sucrose (30 mM; Available from Fluka Chemie, Buchs, Switzerland), HEPES (10 mM, pH 6-7.4). Solutions with pH<6 were buffered with MES (10 mM) in stead of HEPES. Solutions with no added Ca^2+ contained 3 mM MgCl2. Solutions with no added Na^+ contained 140 mM N-methyl-D-glucamine. For voltage clamp experiments, the extracellular solutions were added Tetrodotoxin (0.0003 mM; Available from Alomone Labs, Jerusalem, Israel) and Bicuculline Methiodide (0.005 mM; Available from RBI, MA, USA).
Intracellular solution for voltage clamp experiments: CsCl (120 mM), CsF (20 mM), MgCl2 (2 mM), EGTA (10 mM), HEPES (10 mM; pH=7.2). […]
For voltage clamp experiments, the cells were held at a holding voltage of −60 mV and at the start of each experiment the current was continuously measured for at least 30 sec. to ensure a stable leak current. […]

One may read the IC50 as the point on the concentration scale where inhibition reaches its midpoint. With `N=C(N)NC(=O)c1nc(Cl)c(N)nc1N` [Amiloride, N-amidino-3,5-diamino-6-chloropyrazine-2-carboxamide], the “Effect on proton-gated currents” value (100 μM Amiloride, saline at pH 6, voltage clamp −60 mV) was “inhibited”. Moreover, for the setting “cultured mouse cortical neuron, voltage clamp −60 mV, saline at pH 6, Hill equation fit, read-out: IC50, inhibition of proton-gated currents”, the IC50 was 6.2 µM.

Source of the values: patent US7288653B2, “Inhibitors of proton-gated cation channels and their use in the treatment of ischaemic disorders” (PainCeptor Pharma Corporation, priority 1999, dated 2007).
